According to patent US20020103084A1, “Soybean derived pesticide” (priority 2000, published 2002):

Test system: Persia mites
Assay: Spray on avocado trees infested with Persia mites
Format: in vivo
Conditions: Example 14, diluted 200 times water
Description: Soybean extract and soybean slurry prepared as described above are used in the following examples. Many of the following examples involve spraying solutions onto leaves. The amount sprayed in the subsequent examples is quantified as spraying an amount sufficient to totally wet the plant or leaf surface.
The prepared concentrated insecticide is then diluted with 100 times water and thereafter sprayed onto avocado trees infested with Persia mites. A control sample using water was also tested. The results are as follows:
The effectiveness of soybean extract (Sample I) sprayed upon avocado leaves infested with Persia mites is evaluated. Sample I is diluted at both 100 times and 500 times water and thereafter sprayed onto avocado trees infested with Persia mites. A control sample using water was also tested. The results are as follows:
The same samples used in Example 5 are also used in testing effectiveness for control of mites. The samples are diluted with 100 times water and sprayed onto avocado trees infested with Persia mites. Two controls were used: the first, pure water; and, the second, clove oil diluted 100 times with water. The test results are as the following:
The same samples used in Example 7 are also used in testing the control of mites. The samples are diluted with 100 times water and sprayed onto avocado trees infested with Persia mites. The test results are as the following: […]

Compound: O=C/C=C/c1ccccc1 [Cinnamic Aldehyde, cinnamic aldehyde]
- Mortality (%) (6 days after spray): 57.3%
- No. Mites 6 Days After Spray (average number of mites per leaf, avocado trees): 10.8
